# Data: patent publication US20240335462A1, “SULFUR/PHOSPHORUS-CONTAINING ARYL COMPOUND AND APPLICATION THEREOF” (MEDSHINE DISCOVERY INC., priority 2021, published 2024)
# Legend:
# Type in all cases: cell-based
# [1] = test system: JAK1/2 signaling pathway (IL-6/pSTAT3); assay: IL-6-induced STAT phosphorylation in human whole blood
# Protocol: (§1) The purpose of this experiment was to detect the inhibitory effect of the compound on the JAK-STAT signaling pathway activated by cytokines in human whole blood or platelet-rich plasma. Fresh human whole blood/platelets were placed in a 96-well plate. The test compound was added and incubated for 1 hour, followed by stimulation with various cytokines. The corresponding STAT phosphorylation levels in different cell populations were analyzed using flow cytometer by means of surface antibody staining and intracellular phosphorylated antibody staining. The experiments using the cytokines IFN-α, […] as stimulants were conducted in human whole blood, whereas the experiment using the cytokine TPO as a stimulant was conducted in platelet-rich plasma.
# (§2) • a) Fresh blood from volunteers was collected using EDTA anticoagulant tubes. • b) 90 μL per well of whole blood was rapidly seeded into a 96-well plate and incubated in a cell culture incubator for 15 minutes. […] The plate was centrifuged at 500×g for 8 minutes, and the supernatant was discarded. • g) The cell pellet was washed once with pre-cooled PBS. • h) After discarding the supernatant, anti-human CD3 antibody was added thereto, followed by incubation at room temperature for 40 minutes. • i) The plate was centrifuged at 500×g for 8 minutes, then the supernatant was discarded, and the cells were washed twice with 200 μL of pre-cooled PBS. • j) The cells were resuspended in 200 μL of pre-cooled Perm Buffer III per well and permeabilized on ice for 60 minutes. • k) The plate was centrifuged at 600×g for 8 minutes, then the supernatant was discarded, and the cells were washed twice with pre-cooled PBS. • l) Intracellular staining with anti-pSTAT5 antibody was carried out, followed by incubation at room temperature for 60 minutes. • m) The cells were centrifuged at 600×g for 8 minutes, washed twice with PBS, resuspended in 200 μL of PBS, and detected using the CytoFlex S flow cytometer. • n) Data analysis was conducted using FlowJo and GraphPad Prism 8 software.
# (§3) Data were analyzed using FlowJo software. […]
# [2] = test system: JAK1/3 signaling pathway (IL-2/pSTAT5); assay: IL-2-stimulated pSTAT5 in human PBMC (flow cytometry); settings: CD4-positive cells
# Protocol: The purpose of this experiment was to detect the inhibitory effect of the compounds on cytokine-activated JAK-STAT signaling pathways in human peripheral blood mononuclear cells (PBMC).
# • a) PBMCs frozen in liquid nitrogen were thawed in a 37° C. water bath, and culture medium was added. The mixture was then centrifuged at 320 g for 3 minutes. • b) Cells were resuspended in culture medium, counted, and the cell concentration was adjusted to 5×10^5 cells/mL with culture medium. Subsequently, the cell suspension was inoculated into […] 96-well round-bottom plates, with 200 μL per well. The plates were incubated at 37° C. with 5% CO2 for 90 minutes. • c) Different concentrations of the test compound (starting at 2 μM, 5-fold serial dilution, a total of 8 concentrations) were added, followed by incubation at 37° C. with 5% CO2 for 30 minutes. • d) IL-6 (final concentration at 20 ng/mL) was added to the first round-bottom plate and incubated at 37° C. with 5% CO2 for 15 minutes. • e) IFNα (final concentration at 1000 U/mL) was added to the second round-bottom plate and incubated at 37° C. with 5% CO2 for 15 minutes. • f) IL-2 (final concentration at 4 ng/mL) was added to the third round-bottom plate and incubated at 37° C. with 5% CO2 for 15 minutes. • g) GM-CSF (final concentration at […]) was added to the fourth round-bottom plate and incubated at 37° C. with 5% CO2 for 15 minutes. • h) Cells were centrifuged at 320 g for 3 minutes, and each well was washed once with 200 μL of staining solution. • i) 50 μL of staining solution containing human CD33 antibody was added to each well of the GM-CSF-stimulated culture plate, and 50 μL of staining solution containing CD4 antibody was added to the remaining three culture plates. The staining was performed at 4° C. for 30 minutes. The cells were washed twice with the staining solution. • j) 100 μL of fixation buffer was added to each well, and the cells were fixed at 4° C. for 15 minutes. The cells were washed once with the staining solution. • k) 100 μL of permeabilization buffer was added to each well, and the cells were permeabilized at 4° C. for 20 minutes. The cells were washed twice with the staining solution. • l) 50 μL of staining solution containing human pSTAT1 antibody was added to each well of the IL-6 and IFN-α-stimulated culture plates, and 50 μL of staining solution containing human pSTAT5 antibody was added to each well of the IL-2 and GM-CSF-stimulated culture plates. The staining was performed at room temperature for 15 minutes. The cells were washed twice with the staining solution. • m) The cells were resuspended in 150 μL of staining solution. • n) The fluorescence intensity of pSTAT1 (stimulated by IL-6 and IFN-α) or pSTAT5 (stimulated by IL-2) in CD4-positive cells was detected using flow cytometer. The fluorescence intensity of pSTAT5 (stimulated by GM-CSF) in CD33-positive cells was also detected.
# Data analysis was performed using Flowjo software to determine the IC50 of the compounds.
# [3] = test system: JAK1/3 signaling pathway (IL-2/pSTAT5); assay: IL-2-induced STAT phosphorylation in human whole blood
# Protocol: as §1, §2, §3
Structure (SMILES),IC50 [1] [µM],IC50 [2] [µM],IC50 [3] [µM]
"CNC(=O)c1nnc(NC(=O)C2CC2)cc1Nc1cccc(-c2ncc(S(=N)(=O)C(C)C)cn2)c1OC (single isomer, unassigned) [WX-011A]",10.8,1.31,11.2
"CNC(=O)c1nnc(NC(=O)C2CC2)cc1Nc1cccc(-c2ncc(S(=N)(=O)C(C)C)cn2)c1OC (single isomer, unassigned) [WX-011B]",–,0.773,–
CNC(=O)c1cnc(NC(=O)C2CC2)cc1Nc1cccc(-c2ccc(S(=O)(=O)C(C)C)cn2)c1OC.Cl [Hydrochloride of WX-020],–,1.4,–
CNC(=O)c1cnc(NC(=O)C2CC2)cc1Nc1cccc(-c2ncc(S(=O)(=O)C(C)C)cn2)c1OC [WX-019],33.9,1.58,33.8
CNC(=O)c1cnc(NC(=O)C2CC2)cc1Nc1cccc(-c2ccc(S(=O)(=O)C(C)C)cn2)c1OC [WX-020],> 100,–,> 100
CNC(=O)c1nnc(NC(=O)C2CC2)cc1Nc1cccc(-c2ccc(P(=O)(C3CC3)C3CC3)cn2)c1OC [WX-021],–,0.54,–
